The source made the active and inactive calls. The rule behind the calls is not given here.
System: CCRIS mutagenicity, Ames/micronucleus/aberration tests
Assay: CCRIS mutagenicity studies
[1] = Test System: AMES SALMONELLA TYPHIMURIUM, Strain/Indicator: TA98, Metabolic Activation: NONE, Method: PREINCUBATION
[2] = Test System: AMES SALMONELLA TYPHIMURIUM, Strain/Indicator: TA98, Metabolic Activation: NONE, Method: STANDARD PLATE
[3] = Test System: AMES SALMONELLA TYPHIMURIUM, Strain/Indicator: TA100, Metabolic Activation: NONE, Method: PREINCUBATION
[4] = Test System: AMES SALMONELLA TYPHIMURIUM, Strain/Indicator: TA100, Metabolic Activation: NONE, Method: STANDARD PLATE

## Cc1ccccc1N=Nc1ccc(N)c(C)c1N
Test System: AMES SALMONELLA TYPHIMURIUM, Strain/Indicator: TA100, Metabolic Activation: HUMAN, LIVER, S-9, Method: PREINCUBATION
  mutagenic call: active; positive
Test System: AMES SALMONELLA TYPHIMURIUM, Strain/Indicator: TA100, Metabolic Activation: RAT, LIVER, S-9, BETA-NAPHTHOFLAVONE, Method: PREINCUBATION
  mutagenic call: active; positive
Test System: AMES SALMONELLA TYPHIMURIUM, Strain/Indicator: TA100, Metabolic Activation: RAT, LIVER, S-9, PHENOBARBITAL, Method: PREINCUBATION
  mutagenic call: active; positive
Test System: AMES SALMONELLA TYPHIMURIUM, Strain/Indicator: TA100, Metabolic Activation: RAT, LIVER, S-9, Method: PREINCUBATION
  mutagenic call: active; positive
Test System: UDS RODENT HEPATOCYTES, Strain/Indicator: THY INCORP, Metabolic Activation: NONE, Method: AUTORADIOGRAPHY
  mutagenic call: active; positive

## Cc1c2cc(CO)ccc2nc2c1ccc1ccccc12
Test System: AMES SALMONELLA TYPHIMURIUM, Strain/Indicator: TA100, Metabolic Activation: RAT, LIVER, S-9, AROCLOR 1254, Method: STANDARD PLATE
  mutagenic call: active; positive

## O=[N+]([O-])c1c2ccccc2cc2ccccc12
Test System: AMES SALMONELLA TYPHIMURIUM, Strain/Indicator: TA98, Metabolic Activation: HAMSTER, LIVER, S-9, AROCLOR 1254 (30%), Method: PREINCUBATION
  mutagenic call: active; positive
[1]
  mutagenic call: active; positive
[2]
  mutagenic call: active; positive
Test System: AMES SALMONELLA TYPHIMURIUM, Strain/Indicator: TA98, Metabolic Activation: RAT, LIVER, S-9, AROCLOR 1254 (10%), Method: PREINCUBATION
  mutagenic call: active; positive
Test System: AMES SALMONELLA TYPHIMURIUM, Strain/Indicator: TA98, Metabolic Activation: RAT, LIVER, S-9, AROCLOR 1254 (30%), Method: PREINCUBATION
  mutagenic call: active; positive
Test System: AMES SALMONELLA TYPHIMURIUM, Strain/Indicator: TA98, Metabolic Activation: RAT, LIVER, S-9, Method: STANDARD PLATE
  mutagenic call: active; positive
Test System: AMES SALMONELLA TYPHIMURIUM, Strain/Indicator: TA100, Metabolic Activation: HAMSTER, LIVER, S-9, AROCLOR 1254 (30%), Method: PREINCUBATION
  mutagenic call: active; positive
[3]
  mutagenic call: active; positive
[4]
  mutagenic call: inactive; negative
Test System: AMES SALMONELLA TYPHIMURIUM, Strain/Indicator: TA100, Metabolic Activation: RAT, LIVER, S-9, AROCLOR 1254 (10%), Method: PREINCUBATION
  mutagenic call: active; positive
Test System: AMES SALMONELLA TYPHIMURIUM, Strain/Indicator: TA100, Metabolic Activation: RAT, LIVER, S-9, AROCLOR 1254 (30%), Method: PREINCUBATION
  mutagenic call: active; positive
Test System: AMES SALMONELLA TYPHIMURIUM, Strain/Indicator: TA100, Metabolic Activation: RAT, LIVER, S-9, Method: STANDARD PLATE
  mutagenic call: inactive; negative

## CC(=O)OC1Cc2c3ccc4ccccc4c3cc3ccc(C)c1c23 (stereo not given)
[2]
  mutagenic call: inactive; negative
[4]
  mutagenic call: active; positive

## CC(=O)O[C@H]1[C@H](OC23C=C(C)C4(CC4)C(C)(O)C2C(=O)C(C)(C)C3)O[C@H](CO)[C@@H](OC(=O)/C=C\c2ccc(O)cc2)[C@@H]1O (stereo not given in full)
[1]
  mutagenic call: active; positive
[3]
  mutagenic call: active; positive

## CC(=O)c1ccccc1
Test System: AMES SALMONELLA TYPHIMURIUM, Strain/Indicator: TA97, Metabolic Activation: NONE, Method: PREINCUBATION
  mutagenic call: inactive; negative
Test System: AMES SALMONELLA TYPHIMURIUM, Strain/Indicator: TA97, Metabolic Activation: RAT, LIVER, S-9, AROCLOR 1254, Method: PREINCUBATION
  mutagenic call: inactive; negative
[1]
  mutagenic call: inactive; negative
Test System: AMES SALMONELLA TYPHIMURIUM, Strain/Indicator: TA98, Metabolic Activation: RAT LIVER S-9, PHENOBARBITAL AND BETA-NAPHTHOFLAVONE, Method: PREINCUBATION
  mutagenic call: inactive; negative
[3]
  mutagenic call: inactive; negative
Test System: AMES SALMONELLA TYPHIMURIUM, Strain/Indicator: TA100, Metabolic Activation: RAT LIVER S-9, PHENOBARBITAL AND BETA-NAPHTHOFLAVONE, Method: PREINCUBATION
  mutagenic call: inactive; negative
Test System: AMES SALMONELLA TYPHIMURIUM, Strain/Indicator: TA102, Metabolic Activation: NONE, Method: PREINCUBATION
  mutagenic call: inactive; negative
Test System: AMES SALMONELLA TYPHIMURIUM, Strain/Indicator: TA102, Metabolic Activation: RAT, LIVER, S-9, AROCLOR 1254, Method: PREINCUBATION
  mutagenic call: inactive; negative
Test System: AMES SALMONELLA TYPHIMURIUM, Strain/Indicator: TA1535, Metabolic Activation: NONE, Method: PREINCUBATION
  mutagenic call: inactive; negative
Test System: AMES SALMONELLA TYPHIMURIUM, Strain/Indicator: TA1535, Metabolic Activation: RAT LIVER S-9, PHENOBARBITAL AND BETA-NAPHTHOFLAVONE, Method: PREINCUBATION
  mutagenic call: inactive; negative
Test System: AMES SALMONELLA TYPHIMURIUM, Strain/Indicator: TA1537, Metabolic Activation: NONE, Method: PREINCUBATION
  mutagenic call: inactive; negative
Test System: AMES SALMONELLA TYPHIMURIUM, Strain/Indicator: TA1537, Metabolic Activation: RAT LIVER S-9, PHENOBARBITAL AND BETA-NAPHTHOFLAVONE, Method: PREINCUBATION
  mutagenic call: inactive; negative
Test System: E.COLI, Strain/Indicator: WP2UVRA/PKM101, Metabolic Activation: NONE, Method: PREINCUBATION
  mutagenic call: inactive; negative
Test System: E.COLI, Strain/Indicator: WP2UVRA/PKM101, Metabolic Activation: RAT LIVER S-9, PHENOBARBITAL AND BETA-NAPHTHOFLAVONE, Method: PREINCUBATION
  mutagenic call: inactive; negative

## Cc1c([N+](=O)[O-])ccc2ccccc12
[1]
  mutagenic call: active; positive

## Cn1c(N)nc2cc(O)ccc21
Test System: AMES SALMONELLA TYPHIMURIUM, Strain/Indicator: TA98, Metabolic Activation: RAT, LIVER, S-9, AROCLOR 1254, Method: PREINCUBATION
  mutagenic call: inactive; negative
Test System: AMES SALMONELLA TYPHIMURIUM, Strain/Indicator: TA100, Metabolic Activation: RAT, LIVER, S-9, AROCLOR 1254, Method: PREINCUBATION
  mutagenic call: inactive; negative

## O=[N+]([O-])c1cc2[nH]c3ccc4ccccc4c3c2c2ccccc12
[2]
  mutagenic call: inactive; negative
Test System: AMES SALMONELLA TYPHIMURIUM, Strain/Indicator: TA98, Metabolic Activation: RAT, LIVER, S-9, 3-METHYLCHOLANTHRENE, Method: STANDARD PLATE
  mutagenic call: active; positive
[4]
  mutagenic call: inactive; negative
Test System: AMES SALMONELLA TYPHIMURIUM, Strain/Indicator: TA100, Metabolic Activation: RAT, LIVER, S-9, 3-METHYLCHOLANTHRENE, Method: STANDARD PLATE
  mutagenic call: inactive; negative

## O=c1c2c(O)cccc2oc2c3c(cc(O)c12)O[C@H]1OC=C[C@@H]31
Test System: AMES SALMONELLA TYPHIMURIUM, Strain/Indicator: TA98, Metabolic Activation: RAT, LIVER, S-9, PHENOBARBITAL, Method: STANDARD PLATE
  mutagenic call: inactive; negative
Test System: AMES SALMONELLA TYPHIMURIUM, Strain/Indicator: TA100, Metabolic Activation: RAT, LIVER, S-9, PHENOBARBITAL, Method: STANDARD PLATE
  mutagenic call: active; positive

From PubChem BioAssay AID1259407 (Chemical Carcinogenesis Research Information System (CCRIS), 2018)
